± gives the expanded uncertainty stated by the source.
Experiment: wn = mass fraction of the nth substance listed
Details: 100 kPa, Liquid, Concentric cylinders viscometry

Compound: CCN(CC)CCO [(diethylamino)ethanol] + O
- viscosity (303.2 K, w1 = 0.3001): 2.96 ± 0.34 mPa·s
- viscosity (303.2 K, w1 = 0.3499): 3.34 ± 0.34 mPa·s
- viscosity (303.2 K, w1 = 0.4001): 4.56 ± 0.34 mPa·s
- viscosity (303.2 K, w1 = 0.4501): 5.06 ± 0.34 mPa·s
- viscosity (303.2 K, w1 = 0.4999): 6.11 ± 0.34 mPa·s
- viscosity (303.2 K, w1 = 0.6001): 8.41 ± 0.35 mPa·s
- viscosity (313.2 K, w1 = 0.3001): 2.12 ± 0.34 mPa·s
- viscosity (313.2 K, w1 = 0.3499): 2.36 ± 0.34 mPa·s
- viscosity (313.2 K, w1 = 0.4001): 3.12 ± 0.34 mPa·s
- viscosity (313.2 K, w1 = 0.4501): 3.65 ± 0.34 mPa·s
- viscosity (313.2 K, w1 = 0.4999): 4.33 ± 0.34 mPa·s
- viscosity (313.2 K, w1 = 0.6001): 5.52 ± 0.34 mPa·s
- viscosity (323.2 K, w1 = 0.3001): 1.59 ± 0.34 mPa·s
- viscosity (323.2 K, w1 = 0.3499): 1.81 ± 0.34 mPa·s
- viscosity (323.2 K, w1 = 0.4001): 2.23 ± 0.34 mPa·s
- viscosity (323.2 K, w1 = 0.4501): 2.69 ± 0.34 mPa·s
- viscosity (323.2 K, w1 = 0.4999): 3.07 ± 0.34 mPa·s
- viscosity (323.2 K, w1 = 0.6001): 3.74 ± 0.34 mPa·s

Reference: the NIST ThermoML archive (doi:10.1016/j.jct.2015.12.001)
